The target of the experiment is T1, Human recombinant sGC enzyme (Homo sapiens, UniProt Q02108+Q02153).
T1 construct: purchased Axxora, LLC (San Diego, Calif.)
T1 sequence (Q02153 1-619): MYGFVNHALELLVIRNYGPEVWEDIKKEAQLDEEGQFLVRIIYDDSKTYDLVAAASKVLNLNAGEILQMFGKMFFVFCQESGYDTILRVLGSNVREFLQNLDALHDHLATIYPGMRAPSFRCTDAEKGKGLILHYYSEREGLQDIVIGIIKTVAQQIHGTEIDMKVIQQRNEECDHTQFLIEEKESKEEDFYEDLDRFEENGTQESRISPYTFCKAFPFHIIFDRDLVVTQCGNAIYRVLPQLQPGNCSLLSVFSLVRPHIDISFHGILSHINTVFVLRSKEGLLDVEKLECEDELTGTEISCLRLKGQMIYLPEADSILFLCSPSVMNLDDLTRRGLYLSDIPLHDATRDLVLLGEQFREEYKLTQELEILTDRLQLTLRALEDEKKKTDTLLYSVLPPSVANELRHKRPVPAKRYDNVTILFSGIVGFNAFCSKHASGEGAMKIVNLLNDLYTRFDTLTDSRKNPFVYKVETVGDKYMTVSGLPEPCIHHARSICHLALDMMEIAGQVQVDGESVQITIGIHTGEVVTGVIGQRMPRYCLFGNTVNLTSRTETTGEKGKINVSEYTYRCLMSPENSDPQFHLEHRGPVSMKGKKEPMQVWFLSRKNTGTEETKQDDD
T1 sequence (Q02108 1-690): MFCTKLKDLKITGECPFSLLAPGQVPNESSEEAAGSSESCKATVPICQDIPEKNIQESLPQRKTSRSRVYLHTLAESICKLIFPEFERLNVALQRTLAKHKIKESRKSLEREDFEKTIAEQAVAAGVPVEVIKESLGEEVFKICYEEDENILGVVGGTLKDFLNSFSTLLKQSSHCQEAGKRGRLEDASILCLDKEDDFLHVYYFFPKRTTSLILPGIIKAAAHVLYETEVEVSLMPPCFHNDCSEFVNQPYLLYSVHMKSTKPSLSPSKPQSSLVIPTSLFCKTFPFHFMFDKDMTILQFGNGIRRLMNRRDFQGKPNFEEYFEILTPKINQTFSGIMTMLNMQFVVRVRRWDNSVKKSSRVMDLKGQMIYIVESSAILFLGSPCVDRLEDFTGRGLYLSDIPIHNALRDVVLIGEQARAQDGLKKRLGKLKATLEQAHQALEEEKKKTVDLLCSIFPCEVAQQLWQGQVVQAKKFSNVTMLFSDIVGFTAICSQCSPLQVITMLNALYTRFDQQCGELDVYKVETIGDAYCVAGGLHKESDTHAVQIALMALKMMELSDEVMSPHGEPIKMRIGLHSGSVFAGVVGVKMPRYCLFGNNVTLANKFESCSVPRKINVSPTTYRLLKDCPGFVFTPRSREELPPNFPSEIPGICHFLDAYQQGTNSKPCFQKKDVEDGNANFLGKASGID
Kind of experiment: Measurement of soluble guanylyl cyclase activation (enzyme-based), PCASA cell-free enzymatic assay, cGMP by HTRF. The experiment is classed as biochemical. The note with it: purified sGC 0.1 ng, substrate GTP, 1 hr at 37° C. As for the experimental part:
Measurement of Soluble Guanylyl Cyclase ([…]) Activation (Enzyme-Based)
Activities of test compounds against purified sGC were evaluated in PCASA assay which is a cell-free enzymatic assay.
Human recombinant sGC enzyme with greater than 95% purity was obtained from Axxora, LLC (San Diego, Calif.). Compounds were incubated with 0.1 ng of sGC enzyme in presence of its substrate GTP for 1 hr at 37° C. At the end of the incubation period, the reaction was stopped and the amount of cGMP generated was measured by an HTRF-based assay (CisBio, 62GN2PEC), which detects the displacement of a fluorophore-labeled cGMP from its specific antibody.
Inflection point, maximum % of activation, and EC50 were derived based on the plot of compound concentration vs % activation.

Take `O=C(O)c1cnn(-c2cccc(-c3cc(Cl)ccc3OCc3ccc([C@H]4CC[C@H](C(F)(F)F)CC4)cc3)n2)c1C(F)(F)F` [Example 9]: the EC50 worked out at 1.7 nM.
